From PMC3726930, “Synthesis and Biological Activity of N-Sulfonyltripeptides with C-Terminal Arginine as Potential Serine Proteases Inhibitors” (International Journal of Peptide Research and Therapeutics, 2012)

Tests used:
MDA-MB-231 cells = details: 24 h
DLD cells = details: 24 h

Row | SMILES | IC50 (MDA-MB-231 cells) | IC50 (DLD cells)
1 | C[C@H](NC(=O)[C@@H](CO)NS(C)(=O)=O)C(=O)N[C@@H](CCCNC(=N)N)C(=O)NCCCCCN [Compound 3, CH3PhSO2-D-Ser-Ala-Arg-NH-(CH2)5-NH2] | 570 µM | 390 µM
2 | CS(=O)(=O)N[C@H](CO)C(=O)NCC(=O)N[C@@H](CCCNC(=N)N)C(=O)NCCCCCN [Compound 6, CH3PhSO2-D-Ser-Gly-Arg-NH-(CH2)5-NH2] | 450 µM | 260 µM
3 | CCC[C@H](NC(=O)[C@@H](CO)NS(=O)(=O)c1c(C(C)C)cc(C(C)C)cc1C(C)C)C(=O)N[C@@H](CCCNC(=N)N)C(=O)O [Compound 14, 2,4,6-TriiPrPhSO2-D-Ser-NVa-Arg-OH] | 590 µM | 220 µM
4 | CCC[C@H](NC(=O)[C@@H](CO)NS(C)(=O)=O)C(=O)N[C@@H](CCCNC(=N)N)C(=O)NCCCCCN [Compound 9, CH3PhSO2-D-Ser-NVa-Arg-NH-(CH2)5-NH2] | 620 µM | 50 µM
